Experimental data as given in patent US20040210958A1, “A Novel Culture Method for Corn Transformation” (MONSANTO TECHNOLOGY LLC, priority 2003, published 2004).

Test system: nodal section explants from 7-day-old seedlings of corn line 106
Experiment: Effect of seed germination medium on callus induction from nodal section explants (36-media screen)
Assay type: cell-based
Procedure: This example described experiments to determine the best combination of auxins and cytokinins in the germination tissue culture media. To improve the efficiency of callus induction from 106 seedlings, 36 different germination media were evaluated. Those media were MS-based with different combinations of picloram (0, 0.1, 1, 2.2, 5 or 10 mg/L) and BAP (0, 0.1, 1, 3, 5 or 10 mg/L) concentrations.

For `Nc1c(Cl)c(Cl)nc(C(=O)O)c1Cl` [Picloram, 4-amino-3,5,6-trichloropicolinic acid], the “callus induction (% embryogenic calli per node)” value (germination medium picloram 0.10 mg/L, BAP 0.00 mg/L) was 0.00%, the “callus induction (% embryogenic calli per node)” value (germination medium picloram 1.00 mg/L, BAP 0.00 mg/L) was 9.52% and the “callus induction (% embryogenic calli per node)” value (germination medium picloram 2.20 mg/L, BAP 0.00 mg/L) was 9.52%. The “callus induction (% embryogenic calli per node)” value (germination medium picloram 5.00 mg/L, BAP 0.00 mg/L) was 19.05% and the “callus induction (% embryogenic calli per node)” value (germination medium picloram 10.00 mg/L, BAP 0.00 mg/L) was 4.76%.
For `c1ccc(CNc2ncnc3nc[nH]c23)cc1` [BAP, 6-benzylaminopurine], the “callus induction (% embryogenic calli per node)” value (germination medium picloram 0.00 mg/L, BAP 0.10 mg/L) was 4.76%, the “callus induction (% embryogenic calli per node)” value (germination medium picloram 0.00 mg/L, BAP 1.00 mg/L) was 0.00% and the “callus induction (% embryogenic calli per node)” value (germination medium picloram 0.00 mg/L, BAP 3.00 mg/L) was 14.29%. For the same compound, the “callus induction (% embryogenic calli per node)” value (germination medium picloram 0.00 mg/L, BAP 5.00 mg/L) was 0.00% and the “callus induction (% embryogenic calli per node)” value (germination medium picloram 0.00 mg/L, BAP 10.00 mg/L) was 0.00%.
